The compounds below were run against T1, NLRP3 (Homo sapiens, UniProt Q96P20) (assay: IL-1β (interleukin-1β) secretion in IFN-γ-differentiated, LPS/ATP-stimulated THP-1 cells (half inhibition rate of NLRP3)). Details: IFN-γ 25 ng/mL, LPS 50 ng/mL, ATP 5 mM.
T1 construct: endogenous in cells; host or cells: THP-1 cells (IFN-γ differentiated, LPS primed, ATP stimulated)
Format: cell-based
Procedure: Remove THP-1 cells from liquid nitrogen and place in a 37° C. water bath until ice melt. Add the cells to 5 mL of warm cell culture medium and centrifuge at 1,000 rpm for 5 min. Discard the supernatant and resuspend and culture in a new cell culture medium.
THP-1 cells are cultured in the culture medium and passaged every 2-3 days.
2.1.1 Add 100 μL of cell suspension per well to the cell plate and incubate the cell plate in a 37° C., 5% CO2 incubator for 24 hours.
2.2.1 Discard the supernatant of IFN-γ differentiation after differentiation treatment. Add 100 μL of serum-free medium containing LPS (final concentration of 50 ng/mL) to the cell plate. The cell plates were incubated in a 37° C., 5% CO2 incubator for 4 h.
Place the cell plate in an incubator at 37° C. and 5% CO2 for 1 hour.
2.2.3 Add 20 μL of 6×ATP per well according to the plate map (final concentration 5 mM) and incubate the cell plate in a 37° C., 5% CO2 incubator for 1 h. Collect the supernatant (60 μL) and store at −20° C.
The capture antibody mAb Mt175 is diluted to 2 μg/mL with PBS (1:250) and added to the cell plate at 15 μL per well. Keep the plate overnight at 4° C.
2.4.1 Discard the coated antibody and wash 4 times with PBST.
2.4.3 Discard the blocking buffer and wash 4 times with PBST.
2.4.4 Add 25 μL of 2.2.3 collected supernatant sample per well and incubate for 2 h at room temperature.
2.4.5 Discard the samples and wash 4 times with PBST.
2.4.6 Add mAb7P10-biotin (concentration 0.5 ug/mL) to blocking buffer, add 15 μL per well to the cell plate, and incubate for 1 hour at room temperature.
2.4.7 Discard the antibody and wash 4 times with PBST.
2.4.8 Streptavidin-HRP was diluted 1:1000 in blocking buffer, 15 μL per well was added to the cell plate, and incubated for 1 hour at room temperature.
2.4.9 Discard streptavidin-HRP and wash 4 times with PBST.
2.4.10 Add 25 μL of HRP substrate (Surmodics-TMBW-0100-01) per well and incubate the cell plate until a blue product appears.
2.4.11 Add 25 μL of stop solution (Surmodics-LSTP-0100-01) per well, and the blue product turns yellow.
2.4.12 Read the cell plate at 450 nm with a microplate reader.

T1 sequence (Q96P20 whole entry): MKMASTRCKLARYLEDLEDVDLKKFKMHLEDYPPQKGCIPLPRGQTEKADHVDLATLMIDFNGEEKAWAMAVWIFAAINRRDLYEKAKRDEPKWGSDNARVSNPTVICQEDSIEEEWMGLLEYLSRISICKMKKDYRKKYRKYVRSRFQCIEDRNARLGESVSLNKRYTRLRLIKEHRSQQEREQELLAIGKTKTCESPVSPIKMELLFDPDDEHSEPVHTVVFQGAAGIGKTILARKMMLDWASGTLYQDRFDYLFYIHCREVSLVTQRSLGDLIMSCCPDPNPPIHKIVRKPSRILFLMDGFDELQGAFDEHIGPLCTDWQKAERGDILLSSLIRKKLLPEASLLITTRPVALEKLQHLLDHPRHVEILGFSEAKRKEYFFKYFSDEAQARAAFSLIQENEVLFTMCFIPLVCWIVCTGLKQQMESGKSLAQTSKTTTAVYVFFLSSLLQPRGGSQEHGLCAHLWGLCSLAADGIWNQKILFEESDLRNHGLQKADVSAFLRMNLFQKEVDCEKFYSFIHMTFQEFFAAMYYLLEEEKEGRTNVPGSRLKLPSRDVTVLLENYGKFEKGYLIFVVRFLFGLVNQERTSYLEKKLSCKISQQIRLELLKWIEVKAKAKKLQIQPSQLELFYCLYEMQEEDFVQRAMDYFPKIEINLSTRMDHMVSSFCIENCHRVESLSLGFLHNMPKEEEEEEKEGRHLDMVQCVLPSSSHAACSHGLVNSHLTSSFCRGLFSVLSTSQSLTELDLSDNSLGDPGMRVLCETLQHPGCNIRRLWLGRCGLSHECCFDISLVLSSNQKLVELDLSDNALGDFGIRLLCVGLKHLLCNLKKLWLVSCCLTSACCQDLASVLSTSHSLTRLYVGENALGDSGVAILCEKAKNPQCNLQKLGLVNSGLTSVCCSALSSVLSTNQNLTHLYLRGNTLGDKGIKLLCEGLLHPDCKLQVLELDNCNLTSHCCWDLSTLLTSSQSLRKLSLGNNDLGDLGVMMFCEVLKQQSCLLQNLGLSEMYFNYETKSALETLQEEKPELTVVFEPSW

Row | Compound | IC50 [nM]
1 | Cc1cc(C)c(-c2cnc(N[C@@H]3CCCN(CC(=O)O)C3)nn2)c(O)c1 [Embodiment 3, (R)-2-(3-((6-(2-hydroxy-4,6-dimethylphenyl)-1,2,4-triazin-3-yl)amino)piperidin-1-yl)acetic acid] | 53.5
2 | CN1CCC[C@@H](Nc2nnc(-c3ccc(Cl)cc3O)c3cnccc23)C1 [Embodiment 129] | 3.8
3 | Cc1nc(N[C@@H]2CCCN(C)C2)nnc1-c1ncc(C(F)(F)F)cc1O [Embodiment 9, (R)-2-(5-methyl-3-((1-methylpiperidin-3-yl)amino)-1,2,4-triazin-6-yl)-5-(trifluoromethyl)pyridin-3-ol] | 67
4 | Cc1cc(C(F)(F)F)cc(O)c1-c1cnc(N[C@@H]2CCCN(C)C2)nn1 [Embodiment 10, (R)-3-methyl-2-(3-((1-methylpiperidin-3-yl)amino)-1,2,4-triazin-6-yl)-5-(trifluoromethyl)phenol] | 15.5
5 | Cc1cc(C)c(-c2cnc(N[C@@H]3CCCN(CC(=O)N[C@H]4C[C@@](C)(O)C4)C3)nn2)c(O)c1 [Embodiment 25] | 317
6 | Cc1nc(N[C@@H]2CCCN(C)C2)nnc1-c1ccc(C(F)(F)F)cc1O [Embodiment 8, (R)-2-(5-methyl-3-((1-methylpiperidin-3-yl)amino)-1,2,4-triazin-6-yl)-5-(trifluoromethyl)phenol] | 1.5
7 | Cc1nc(N[C@@H]2CCCN(C(C)C)C2)nnc1-c1ccc(C(F)(F)F)cc1O [Embodiment 144] | 1.8

The remaining lines, values ahead:

Row | IC50 [nM] | Compound
8 | 11.3 | C[C@]1(O)C[C@@H](Nc2nnc(-c3ccc(C(F)(F)F)cc3O)c3ncccc23)C1 [Embodiment 76, 2-(5-(((cis)-3-hydroxy-3-methylcyclobutyl)amino)pyrido[2,3-d]pyridazin-8-yl)-5-(trifluoromethyl)phenol]
9 | 1.5 | Cc1nc(N[C@@H]2CCCN(C3CC3)C2)nnc1-c1ccc(C(F)(F)F)cc1O [Embodiment 141]
10 | 2.9 | CN1CCC[C@@H](Nc2nnc(-c3ccc(C(F)(F)F)cc3O)c3cnccc23)C1 [Embodiment 30, (R)-2-(1-((1-methylpiperidin-3-yl)amino)pyrido[3,4-d]pyridazin-4-yl)-5-(trifluoromethyl)phenol]
11 | 34.8 | Oc1cc(C(F)(F)F)ccc1-c1nnc(N[C@@H]2CCCC[C@H]2O)c2c1CCC2 [Embodiment 81, 2-(4-(((1R,2R)-2-hydroxycyclohexyl)amino)-6,7-dihydro-5H-cyclopenta[d]pyridazin-1-yl)-5-(trifluoromethyl)phenol]
12 | 40.6 | CN1CCC[C@@H](Nc2nnc(-c3ccc(C(F)(F)F)cc3O)c3cocc23)C1 [Embodiment 109]
13 | 2.9 | CN1CCC[C@@H](Nc2nnc(-c3ccc(C(F)(F)F)cc3O)c3c(F)cccc23)C1 [Embodiment 122]
